Laboratory results: patent US20240239829A1 (priority 2021, published 2024)
Read-outs that look alike come from different tables or passages of the source.

Assays:
respiratory infection = assay: Prevention of respiratory infections of weaning piglets; assay type: in vivo
From the text: The sick rate was about 10% and the death rate was about 5%. […] Control feed comprised 500 grams of Tilmicosin per 1000 kg. The nursery feeds were given to 763 of weaning piglets and 750 of controls from day 15 of the weaning period.

[1] = system: A/PR/8/34(H1N1) influenza virus; set-up: species or system C57BL/6J mice; conditions: mouse, in vivo
[2] = for stability: compound alone, 5 mg/ml, 37° C., SGF pH 1.0, PBS pH 4.5, SIF pH 7.3, 0.5-6 hours
[3] = system: A/H3N2/Hong Kong/1/68 influenza virus; set-up: species or system C57BL/6J mice; conditions: mouse, in vivo
human fetal tissues = assay: Antibody binding to human fetal tissues (tissue array slides); conditions: lung, heart, kidney, brain, pancreas, liver, thymus and testicle
From the text: (§1) Further, the Regn10987 antibody from COVID-19 infected patient and fetal tissues or multiple diseased tissues of tissue array slides (purchased from US Biomax) were used to evaluate the pathogenicity of the antibody specific to the SARS-CoV-2 S1 protein. […] In addition, the Regn10987 bound broadly to the human inflammatory tissues or cancer tissues of respiratory, cardiovesvular, urinary and digestive system (FIGS. 17A and 17B). The human inflammatory diseases tested include pneumonia, bronchitis, bronchiectasis, valvular disease, rheumatoid valvular disease, myocarditis, esophagitis, gastritis, collitis, appendicitis, pancreatitis, and hepatitis. The cancer tissues tested include small cell lung carcinoma, kidney clear cell carcinoma, and myxoma.

[4] = system: human lung epithelium cell line A549; assay: Antibody binding to healthy or damaged A549 cells; assay type: cell-based
[5] = system: fetus and newborn mouse pups of timed-pregnant mice
[6] = system: human inflammatory tissues or cancer tissues; assay: Antibody binding to human diseased tissues (tissue array slides); conditions: respiratory, cardiovascular, urinary and digestive system
From the text: as §1

## CC[C@H]1OC(=O)C[C@@H](O)[C@H](C)[C@@H](O[C@@H]2O[C@H](C)[C@@H](O)[C@H](N(C)C)[C@H]2O)[C@@H](CCN2C[C@H](C)C[C@H](C)C2)C[C@@H](C)C(=O)/C=C/C(C)=C/[C@@H]1CO[C@@H]1O[C@H](C)[C@@H](O)[C@@H](OC)[C@H]1OC [Tilmicosin]
Respiratory infection; death
  Odds Ratio: 5.76
Respiratory infection; number of piglets, nursery feed for 4 days from day 15 of weaning
  Death: 38

## COC(=O)[C@]1(O)CC(O)[C@@H](NC(C)=O)C(C(O)[C@H](O)CO)O1 (some centres unmarked) [NANA-Me, N-acetylneuraminic acid methyl ester]
[1]; pH 1.5
  deaths (survival rate): ineffective
[1]; pH 3.5
  deaths (survival rate): ineffective
[1]; pH 4.5
  deaths (survival rate): significantly reduced deaths
[1]; pH 7
  deaths (survival rate): ineffective
[2]
  stability: most stable at about pH 4.5 and least stable at about pH 7.3
[2]; pH 7.4
  NANA-Me stability by ratio NANA:NANA-Me: most stable at NANA:NANA-Me of 1:4 and least stable at NANA:NANA-Me of 1:1

## CCOC(=O)C1=C[C@@H](OC(CC)CC)[C@H](NC(C)=O)[C@@H](N)C1 [Tamiflu]
[3]
  therapeutic efficacy compared to vehicle controls: did not show significant efficacy
[1]
  body weight: maintained better body weight
  deaths (survival rate): significantly reduced the deaths
  inflammation of lung and intestine (HE stained tissue sections): Severe inflammation
  lung cytokine level of IL-1β: remained abnormally higher
  lung cytokine level of IL-6: remained abnormally higher
  lung cytokine level of TNF-α: remained abnormally higher
  serum cytokine level of IL-6: significantly reduced
  serum cytokine level of TNF-α: significantly reduced
[1]; listed as Tamilu
  deaths (survival rate): did not show significant effect

## CC(=O)N[C@H]1[C@H]([C@H](O)[C@H](O)CO)OC(O)(C(=O)O)C[C@@H]1O (some centres unmarked) [NANA, N-acetylneuraminic acid]
[2]
  stability: stable at all the pH conditions

## MAb-Regn10987: naturally occurred human monoclonal antibody specific to the COVID-19 (SARS-CoV-2) S1 protein
Human fetal tissues
  binding to human fetal tissues: bound
[4]; A549 cells with missed sialic acid on the cell surface
  binding to damaged A549 cells: strongly bound
[4]; healthy (intact) A549 cells
  binding to healthy A549 cells: weakly bound
[5]; mouse, in vivo
  histological changes of lungs of mouse pups (HE): Acute lung inflammation and injury
  histology of the brains of mouse pups (HE): Large amount of inflammatory cells infiltration
[5]; mouse, in vivo, ip
  Death (%): 44.8%
  Sick (%): 17.1%
  Sick + Death (%): 61.9%
[5]; sick and death of mouse pups, vs saline
  Odds Ratio: 21.3
[6]
  binding to human inflammatory tissues or cancer tissues: bound broadly
